Measured values as given in patent publication US20240350512A1, “CYTOSKELETAL TENSION REGULATORS AND FAS LIGAND-COMBINATION COMPOSITIONS AND METHODS OF TREATMENT USING THE SAME” (Yale University, priority 2021, published 2024).

B1: Fas ligand: human recombinant Fas ligand, protein having the amino acid sequence SEQ ID NO: 1 (protein, listed as Homo sapiens)
chain: MQQPFNYPYPQIYWVDSSASSPWAPPGTVLPCPTSVPRRPGQRRPPPPPPPPPLPPPPPPPPLPPLPLPPLKKRGNHSTGLCLLVMFFMVLVALVGLGLGMFQLFHLQKELAELRESTSQMHTASSLEKQIGHPSPPPEKKELRKVAHLTGKSNSRSMPLEWEDTYGIVLLSGVKYKKGGLVINETGLYFVYSKVYFRGQSCNNLPLSHKVYMRNSKYPQDLVMMEGKMMSYCTTGQMWARSSYLGAVFNLTSADHLYVNVSELSLVNFEESQTFFGLYK

Key:
[1] = tested on: surface Fas receptors of cancer cells (U87, A549, HepG2, PC3, and SUM159 cells); test: Immunostaining of surface Fas receptors on cancer cells; assay type: cell-based; conditions: 2 hours; 40 μM Fasudil, 10 μM Blebbistatin or 20 μM GW5074; range over U87, A549, HepG2, PC3, SUM159
Description: (§1) FIGS. 2A-2E: Fas receptor expression on the cancer cell surface. FIG. 2A: Addition of either Fasudil, Blebbistatin, or GW5074 to the cell culture medium for 2 hours increased the Fas receptor staining on the cancer cells, but not on HUVECs. […] Fold increase of Fas staining density as response to treatment with FIG. 2C: Fasudil, FIG. 2D: Blebbisatin, and FIG. 2E: GW5074.
In the present study, the effect of the ROCK inhibitor Fasudil, Myosin-II inhibitor Blebbistatin, or the Raf-1 inhibitor GW5074 on Fas receptor translocation on surface of U87, A549, HepG2, PC3, and SUM159 cells was evaluated. The effect of these drugs on cell viability when used alone or in combination with exogenous, recombinant Fas ligand was analyzed. Next, the effects of Fasudil and Fas ligand combination on glioblastoma growth and on viability of non-cancerous cells in engineered brain organoids was investigated. Finally, the in vivo efficacy of the Fasudil-Fas ligand combination on preventing tumor growth in a xenograft U87 tumor model in nude mice was tested.
(§2) It was speculated that the active Raf-1, due to increased intracellular tension in cancer cell, can cause lack of Fas receptors on the cell surface and that either inhibition of Raf-1 or reduction of mechanical tension in the cytoskeleton can restore the Fas receptors on cell surface. To test this theory, U87 (glioblastoma), A549 (non-small cell lung cancer, resistant to apoptosis, FAS ligand alone increases proliferation), HepG2 (liver cancer), PC3 (prostate cancer), and SUM159 (triple negative breast cancer) cells were treated either with 20 μM Raf-1 inhibitor GW5074, 40 μM ROCK inhibitor Fasudil, or 10 μM myosin inhibitor Blebbistatin for 2 hours.

Fas receptors on HUVECs = test: Immunostaining of surface Fas receptors on HUVECs; assay type: cell-based; conditions: 2 hours; regardless of the treatment
Description: as §1, §2

U87 cells = assay type: cell-based; conditions: for cell viability in U87 cells, drug combined with Fas ligand: Fas ligand 400 ng/mL with 40 μM Fasudil, 10 μM Blebbistatin or 20 μM GW5074
Excerpt: FIGS. 3A-3E: Fortified Fas-mediated apoptosis in cancer cells. […] FIG. 3B: representative light microscopy images of U87 cells showing the effect of Fasudil-Fas ligand combination. For the other cancer cell types see FIG. 7. Fasudil-Fas ligand combination decreased the viability of A549, HepG2, SUM159, PC3, and BT549 cells synergistically (FIGS. 3C-3D).
(§3) After showing that Fas receptor expression on the cell surface can be increased with different ques targeting cytoskeletal tension, the Fas-mediated apoptosis triggered by the exogenous Fas ligand when combined with Fasudil, Blebbistain, or GW5074 was studied. The cell viability by quantifying the ATP level present in the cell culture medium after 48 hours of treatment was assessed.

U87 xenograft tumor = U87 xenograft tumor model in nude mice; assay type: in vivo; conditions: for average tumor size: one month after tumor initiation, intraperitoneal injection twice a week for four weeks; for median survival probability: terminal point 1000 mm^3
Description: Further, the anti-tumor efficacies of Fas ligand and Fasudil combination using a U87 xenograft tumor model in nude mice were evaluated. Fas ligand and Fasudil were administrated by intraperitoneal injection when the subcutaneous tumor grew to palpable size >50 mm^3 twice a week for four weeks. The mice were primed with either Fasudil or saline 24 hours before the injection of Fasudil and Fas ligand together. Only Fasudil, only Fas ligand, and only saline injections were made in the control groups. 7-10 mice with tumor volumes ranging from 50-200 mm^3 were randomly assigned to each treatment arm. Terminal point for the tumor growth was determined as 1000 mm^3.

A549 cells = assay type: cell-based
Description: as §3

BT549 cells = assay type: cell-based
Description: as §3

HepG2 cells = assay type: cell-based
Description: as §3

PC3 cells = assay type: cell-based
Description: as §3

SUM159 cells = assay type: cell-based
Description: as §3

Molecule	increase of immunostaining of surface Fas receptors of cancer cells [1]	Fas staining of HUVECs (Fas receptors on HUVECs)	cell viability in U87 cells, drug combined with Fas ligand (U87 cells)	average tumor size (U87 xenograft tumor) [mm3]	median survival probability (U87 xenograft tumor) [%]	cell viability (U87 cells)	cell viability (A549 cells)	cell viability (BT549 cells)	cell viability (HepG2 cells)	cell viability (PC3 cells)	cell viability (SUM159 cells)
Cc1ccc2c(c1)C(=O)C1(O)CCN(c3ccccc3)C1=N2 (stereo not shown) [Blebbistatin, blebbistatin]	1.76-2.15 folds	negligible	decreased cell viability significantly	–	–	–	–	–	–	–	–
O=C1Nc2ccc(I)cc2/C1=C/c1cc(Br)c(O)c(Br)c1 [GW5074]	1.62-2.30 folds	negligible	decreased cell viability significantly	–	–	–	–	–	–	–	–
O=S(=O)(c1cccc2cnccc12)N1CCCNCC1 [Fasudil, fasudil]	2.12-3.28 folds	negligible	decreased cell viability significantly	584.4±113.8	28	–	–	–	–	–	–
B1	–	–	–	602.2±195.7	27	55.6 % of the control	67.8 % of the control	58.0 % of the control	44.6 % of the control	80.2 % of the control	59.9 % of the control
